Source: patent US11377442B2, “Small molecule agonists and antagonists of NR2F6 activity” (ZANDER THERAPEUTICS, INC., priority 2016, dated 2022)

Legend:
Assay type in all cases: cell-based
NR2F6 = target: T1, NR2F6 (Homo sapiens, UniProt P10588); assay: NR2F6 agonist screening, Firefly signal cmpd/DMSO; settings: for Firefly F4, cmpd/DMSO (mean): clone F4; for activity (in words): screening result
T1 construct: expressed in transfected cells; also transient transfection
T1 sequence (P10588 1-404): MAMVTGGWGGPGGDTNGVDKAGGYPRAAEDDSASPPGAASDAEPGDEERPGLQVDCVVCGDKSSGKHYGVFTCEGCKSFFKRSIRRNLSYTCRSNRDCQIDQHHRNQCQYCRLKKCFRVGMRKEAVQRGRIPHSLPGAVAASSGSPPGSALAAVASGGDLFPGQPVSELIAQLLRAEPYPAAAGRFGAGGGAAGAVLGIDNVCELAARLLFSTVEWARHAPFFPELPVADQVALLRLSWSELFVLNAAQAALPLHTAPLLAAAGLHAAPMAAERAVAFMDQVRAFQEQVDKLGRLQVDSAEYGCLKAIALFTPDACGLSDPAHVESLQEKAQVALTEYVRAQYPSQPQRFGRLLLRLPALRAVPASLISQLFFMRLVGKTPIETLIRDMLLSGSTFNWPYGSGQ

ERα [1] = target: T2, ERα (Homo sapiens, UniProt P03372); assay: Counterscreening, Firefly signal with ERα transient transfection (Firefly_ERa); settings: 10 uM
T2 construct: expressed in transfected cells
T2 sequence (P03372 1-595): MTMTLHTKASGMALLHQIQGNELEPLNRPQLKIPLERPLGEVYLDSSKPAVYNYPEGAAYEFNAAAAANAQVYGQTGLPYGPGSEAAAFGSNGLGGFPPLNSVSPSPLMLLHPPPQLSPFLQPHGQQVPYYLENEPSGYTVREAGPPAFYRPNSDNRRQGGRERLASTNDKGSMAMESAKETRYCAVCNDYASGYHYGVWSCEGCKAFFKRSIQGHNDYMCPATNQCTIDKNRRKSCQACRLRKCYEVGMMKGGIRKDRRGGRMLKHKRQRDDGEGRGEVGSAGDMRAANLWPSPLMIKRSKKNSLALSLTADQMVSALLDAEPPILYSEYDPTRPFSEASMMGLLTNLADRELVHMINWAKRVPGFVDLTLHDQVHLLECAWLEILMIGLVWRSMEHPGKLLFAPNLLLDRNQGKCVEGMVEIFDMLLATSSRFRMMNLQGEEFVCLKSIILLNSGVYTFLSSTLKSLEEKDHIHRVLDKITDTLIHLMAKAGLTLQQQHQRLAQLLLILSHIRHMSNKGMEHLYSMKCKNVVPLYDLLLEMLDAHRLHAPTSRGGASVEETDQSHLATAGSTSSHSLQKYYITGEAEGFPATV
Procedure: The methodology for screening candidate compounds as NR2F6 agonists was as follows: For primary screening, hit criteria was ACT %>DMSO control+5*SD (DSO control) at 10 μM, or any compound with S/B>2. For rescreening, hit criteria was ACT %>DMSO control+3*SD (DSO control) in each replicate at 10 μM. For counterscreening, hit criteria was mean ACT<DMSO control+3*SD (DMSO control) with ERα transient transfection in duplicate at 10 μM.

Renilla = Renilla signal in NR2F6 agonist screening, cmpd/DMSO; settings: Renilla, clone F4, read-out: Renilla F4, cmpd/DMSO (mean)
Renilla_ERa = assay: Renilla signal in ERα counterscreen (Renilla_ERa); settings: read-out: Renilla ERalpha transient, cmpd/DMSO (mean)
ERα [2] = target: T2, ERα; assay: Counterscreening, Firefly signal with ERα transient transfection (Firefly_ERa)

Firefly F4, cmpd/DMSO (mean) (NR2F6; 2 uM)	Firefly F4, cmpd/DMSO (mean) (NR2F6; 10 uM)	Firefly F4, cmpd/DMSO (mean) (NR2F6; 40 uM)	activity (in words) (NR2F6)	Firefly ERalpha transient, cmpd/DMSO (mean) (ERα [1])	Firefly ERalpha transient, cmpd/DMSO (mean) (ERα [2]; 2 uM)	Firefly ERalpha transient, cmpd/DMSO (mean) (ERα [2]; 40 uM)	SMILES	fold induction at 2 µM (Renilla)	fold induction at 10 µM (Renilla)	fold induction at 40 µM (Renilla)	fold induction at 2 µM (Renilla_ERa)	fold induction at 10 µM (Renilla_ERa)	fold induction at 40 µM (Renilla_ERa)
1.7	2.0	6.6	particularly good activity	1.8	2.1	8.8	CCOC(=O)c1cnc2ccc(C)cc2c1NCCCN(C)C [Compound Z33]	1.1	1	0.6	1	1.5	0.9
1.6	3.8	0.7	particularly good activity	10.3	2.0	0.9	CCOC(=O)c1cnc2cc(C)c(C)cc2c1NCCCN(C)C [Compound Z34]	1.2	0.8	0.6	1.5	1	0.7
1.9	1.5	1.2	–	2.2	2.6	7.2	CCOC(=O)c1cnc2c(Cl)cc(Cl)cc2c1NCCCN(C)C [Compound Z35]	1.1	2	0.7	1.1	1.3	0.9
0.7	1.8	0.7	–	1.6	1.2	5.8	CCOC(=O)c1cnc2c(Cl)cc(Cl)cc2c1NCCCN1CCCC1 [Compound Z36]	1	1.8	0.6	1.2	1.6	0.8
1.0	1.4	0.7	–	1.5	1.1	1.2	CCOC(=O)c1cnc2c(Cl)cc(Cl)cc2c1NCCCN1CCCCC1 [Compound Z37]	1	0.9	0.5	1	1.7	0.7
0.5	0.8	0.6	–	0.5	0.9	0.5	COc1ccc2nc(C(F)(F)F)c(C#N)c(NCc3ccc(Cl)cc3)c2c1 [Compound Z38]	0.7	0.6	0.4	0.9	0.6	0.6
0.8	1.0	0.7	–	0.5	1.2	0.8	COc1ccc2nc(C(F)(F)F)c(C#N)c(NCCc3ccc(Cl)cc3)c2c1 [Compound Z39]	0.7	0.5	0.5	1.1	0.6	0.6
0.8	0.7	0.8	–	0.3	1.0	1.0	COc1ccc2nc(C(F)(F)F)c(C#N)c(NCCOc3ccc(Cl)cc3)c2c1 [Compound Z40]	0.7	0.6	0.5	1	0.7	0.6
1.0	1.1	1.7	–	1.4	0.9	1.6	COc1ccc2nc(C(F)(F)F)c(C#N)c(N3CCN(C)CC3)c2c1 [Compound Z41]	0.7	0.6	0.6	1	1.1	0.8
0.9	0.9	0.6	–	1.8	1.5	1.1	Cc1ccc(CCCNc2c(C#N)c(C(F)(F)F)nc3ccc(Oc4ccccc4)cc23)cc1 [Compound Z42]	1.2	0.9	0.7	1.1	0.9	0.7
1.3	0.8	0.8	–	0.9	1.4	1.6	N#Cc1c(C(F)(F)F)nc2ccc(Cl)cc2c1N1CCOCC1 [Compound Z43]	1	0.9	0.7	1	1	0.9
0.8	0.8	0.4	–	1.2	1.2	1.0	COc1ccc(-c2cc3n(n2)C(N)=C(C#N)C(c2c[nH]c4ccccc24)(C(F)(F)F)N3)cc1OC (centres unmarked) [Compound Z44]	1.7	1.5	0.3	1.1	0.9	0.5
0.8	1.2	0.5	–	0.6	0.8	0.7	COc1ccc(-c2cc3n(n2)C(N)=C(C#N)C(c2ccc(N4CCOCC4)cc2)(C(F)(F)F)N3)cc1OC (centres unmarked) [Compound Z45]	1.2	1.2	1.1	1.1	0.8	1
0.6	0.8	0.6	–	0.8	0.9	0.6	COC(=O)CNc1c(C#N)c(C(F)(F)F)nc2ccc(OC)cc12 [Compound Z46]	0.9	0.8	0.6	0.9	1	1
